Here are results for 24 compounds from patent publication US9676818B2, “Toll-like receptor 2-agonistic lipopeptides, and method of making the same” (University of Kansas, priority 2013, dated 2017).

One data set is described as follows: Aqueous solubility. The class given is physicochemical.
For another data set, the target named is murine TLR2 (Mus musculus (Mouse), UniProt Q9QUN7). As to the kind of experiment: murine TLR2-specific NF-κB reporter gene assay (HEK-Blue cells). The class given is cell-based. The source says:
The induction of NF-κB in a TLR2-specific reporter gene assay was quantified using HEK-BLUE™ cells as previously described (Wu, W. et al., J. Med. Chem. 2010, 53, 3198-3213). HEK293 cells stably transfected with either human TLR2 or murine TLR2 and alkaline phosphatase (sAP) were obtained from InvivoGen (San Diego, Calif.), and were maintained in HEK-BLUE™ Selection medium containing zeocin and normocin. Stable expression of secreted alkaline phosphatase (sAP) under control of NF-κB promoters is inducible by TLR2 agonists, and extracellular sAP in the supernatant is proportional to NF-κB induction. HEK-Blue cells were incubated at a density of ˜10^5 cells/mL in a volume of 80 μL/well, in 384-well, flat-bottomed, cell culture-treated microtiter plates until confluency was achieved, and then stimulated with serially-diluted aliquots of compounds for 12 h. sAP was assayed spectrophoto-metrically using an alkaline phosphatase-specific chromogen (present in the HEK-detection medium as supplied by the vendor) at 620 nm. […]
For orientation: Reporter assays use an easily measured gene product as a stand-in for the process of interest.

Another data set deals with human TLR2 (Homo sapiens (Human), UniProt O60603). As to the kind of experiment: human TLR2-specific NF-κB reporter gene assay (HEK-Blue cells). The class given is cell-based. The source says:
The induction of NF-κB in a TLR2-specific reporter gene assay was quantified using HEK-BLUE™ cells as previously described (Wu, W. et al., J. Med. Chem. 2010, 53, 3198-3213). HEK293 cells stably transfected with either human TLR2 or murine TLR2 and alkaline phosphatase (sAP) were obtained from InvivoGen (San Diego, Calif.), and were maintained in HEK-BLUE™ Selection medium containing zeocin and normocin. Stable expression of secreted alkaline phosphatase (sAP) under control of NF-κB promoters is inducible by TLR2 agonists, and extracellular sAP in the supernatant is proportional to NF-κB induction. HEK-Blue cells were incubated at a density of ˜10^5 cells/mL in a volume of 80 μL/well, in 384-well, flat-bottomed, cell culture-treated microtiter plates until confluency was achieved, and then stimulated with serially-diluted aliquots of compounds for 12 h. sAP was assayed spectrophoto-metrically using an alkaline phosphatase-specific chromogen (present in the HEK-detection medium as supplied by the vendor) at 620 nm. For antagonism assays, HEK-Blue cells were incubated at a density of ˜10^5 cells/mL in a volume of 80 μL/well and stimulated with either PAM2CS (1 μg/mL) or lipoteichoic acid (1 μg/mL) in the presence of graded concentrations of the test compounds as described for TLR7 previously (Shukla, N. M.; et al., Bioorg. Med. Chem. Lett. 2009, 19, 2211-2214; Shukla, N. M. et al., Bioorg. Med. Chem. 2011, 19, 3801-3811).

The nature of data set [1]: Stability of aqueous stocks. The class given is physicochemical.
For data set [2], the system named is anti-bovine α-lactalbumin IgG responses. As to the kind of experiment: Rabbit immunization with bovine α-lactalbumin, antigen-specific IgG ELISA. The class given is in vivo. Conditions: New Zealand White rabbits; direct comparison with glucopyranosyl lipid A. As to the method: All experiments were performed in accordance with institutional guidelines (University of Kansas IACUC permit #119-06) which specifically approved this study. All antigen/adjuvant preparations were entirely aqueous; no liposomal or emulsifying agents were used. Cohorts of adult female New Zealand White rabbits (n=4) were immunized intramuscularly in the flank region with (a) 100 μg of bovine α-lactalbumin in 0.2 mL saline, or (b) 100 μg of bovine α-lactalbumin plus 100 μg of compound 25 in 0.2 mL saline, or (d) 100 μg of bovine α-lactalbumin plus 100 μg of dual TLR2-agonistic PAM2CSK4 (control). Pre-immune test-bleeds were first obtained via venipuncture of the marginal vein of the ear. […] A final test-bleed was performed via the marginal vein of the ear on Day 38. Sera were stored at −80° C. until used.
Bovine α-lactalbumin-specific ELISAs were performed in 384-well format using automated liquid handling methods as described (Shukla, N. M. et al. Bioorg. Med. Chem. Lett. 2011, 21, 3232-3236). Examination of the affinity of antigen-specific IgG using chaotropic ELISA (Pullen, G. R. et al. J. Immunol. Methods 1986, 86, 83-87 and Macdonald, R. A. et al. J. Immunol. Methods 1988, 106, 191-194). […] Plates were then read at 450 nm using a SpectraMax M4 device (Molecular Devices, Sunnyvale, Calif.).
Background: In an ELISA, binding on a coated surface is turned into a signal by an enzyme label.

Setting [3] is: human TLR2-specific reporter gene assay.
[4] abbreviates: human TLR2-specific reporter gene assay, ND = no activity detected at 10 μM, read-out: TLR2-Agonistic Activity (EC50 in nM).

“Also recorded” adds a separate entry of the source. Like-named read-outs stand apart in the source and are kept apart here.

murine TLR2, sequence (Q9QUN7 25-784): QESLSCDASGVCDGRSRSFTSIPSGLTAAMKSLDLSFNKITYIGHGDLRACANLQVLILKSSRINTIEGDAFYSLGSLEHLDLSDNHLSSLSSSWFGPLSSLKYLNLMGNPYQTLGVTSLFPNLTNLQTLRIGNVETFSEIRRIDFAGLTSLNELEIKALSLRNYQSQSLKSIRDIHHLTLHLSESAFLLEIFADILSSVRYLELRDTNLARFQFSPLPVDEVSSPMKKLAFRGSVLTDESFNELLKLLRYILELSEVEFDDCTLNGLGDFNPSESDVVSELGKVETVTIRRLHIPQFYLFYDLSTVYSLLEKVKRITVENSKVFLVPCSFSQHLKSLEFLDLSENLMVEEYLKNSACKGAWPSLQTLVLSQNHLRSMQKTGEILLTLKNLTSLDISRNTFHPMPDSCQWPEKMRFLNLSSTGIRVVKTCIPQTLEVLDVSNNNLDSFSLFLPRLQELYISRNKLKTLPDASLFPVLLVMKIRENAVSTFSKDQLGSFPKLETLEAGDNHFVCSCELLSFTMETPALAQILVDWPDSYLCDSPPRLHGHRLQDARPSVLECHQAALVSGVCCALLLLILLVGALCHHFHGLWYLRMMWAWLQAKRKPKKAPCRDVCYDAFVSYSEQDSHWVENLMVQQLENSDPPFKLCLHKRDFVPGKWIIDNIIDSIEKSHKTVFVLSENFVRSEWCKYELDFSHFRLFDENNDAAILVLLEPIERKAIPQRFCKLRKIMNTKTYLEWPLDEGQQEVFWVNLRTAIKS
human TLR2, sequence (O60603 21-784): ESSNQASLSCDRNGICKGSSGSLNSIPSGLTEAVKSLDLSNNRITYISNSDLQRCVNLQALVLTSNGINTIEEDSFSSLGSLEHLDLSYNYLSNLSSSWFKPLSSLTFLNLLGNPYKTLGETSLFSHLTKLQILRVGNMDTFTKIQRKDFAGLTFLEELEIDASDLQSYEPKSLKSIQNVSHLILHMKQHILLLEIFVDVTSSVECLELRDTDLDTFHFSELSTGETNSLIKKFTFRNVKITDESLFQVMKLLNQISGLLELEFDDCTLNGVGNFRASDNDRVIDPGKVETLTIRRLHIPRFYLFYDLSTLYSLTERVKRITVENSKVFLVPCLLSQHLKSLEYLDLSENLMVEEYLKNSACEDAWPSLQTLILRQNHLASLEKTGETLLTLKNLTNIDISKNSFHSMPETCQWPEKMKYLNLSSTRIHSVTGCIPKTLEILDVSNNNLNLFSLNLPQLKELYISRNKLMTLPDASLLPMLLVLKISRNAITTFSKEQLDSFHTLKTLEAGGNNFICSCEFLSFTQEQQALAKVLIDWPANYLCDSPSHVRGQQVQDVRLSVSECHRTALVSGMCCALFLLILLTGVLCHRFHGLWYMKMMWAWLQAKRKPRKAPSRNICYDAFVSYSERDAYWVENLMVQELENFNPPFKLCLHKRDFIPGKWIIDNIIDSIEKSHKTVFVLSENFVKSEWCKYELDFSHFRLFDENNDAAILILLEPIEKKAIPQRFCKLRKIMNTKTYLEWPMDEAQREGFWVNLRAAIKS

A word on the EC50: it is the concentration giving half of the maximal effect. For the compound `CCCCCCCCCCCCCCCC(=O)OCCSC[C@H](N)C(=O)N[C@@H](CO)C(=O)OC` [Compound 6d], the water solubility result in the data set “Aqueous solubility” is on record as “water-soluble”. Also, at murine TLR2, the “agonistic activity in mTLR2 / specificity for hTLR2” value is “activating human TLR2 (hTLR2), but not murine TLR2 (mTLR2); also recorded: entirely inactive”. The concentration giving a half-maximal response (EC50) on human TLR2 (hTLR2 reporter gene assay, read-out: EC50 in engaging hTLR2) was 3.6 nM. The “remark beside the EC50 (potency)” value at human TLR2 (setting [3]) is listed as “Low potency”.
`CCCCCCCCCCCCCCCCCC(=O)OCCSC[C@H](N)C(=O)N[C@@H](CO)C(=O)OC` [Compound 6e, 2-(((R)-2-amino-3-(((S)-3-hydroxy-1-methoxy-1-oxopropan-2-yl)amino)-3-oxopropyl)thio)ethyl stearate]: the “agonistic activity in mTLR2 / specificity for hTLR2” value on murine TLR2 was “entirely inactive”. Also, the “remark beside the EC50 (potency)” value at human TLR2 (setting [3]) is given as “Low potency”. Also, on human TLR2 (setting [4]), the EC50 is 4.79 nM.
In the case of `CCCCCCCCCCCCCCCC(=O)OCCCSC[C@H](NC(C)=O)C(=O)N[C@@H](CO)C(=O)OC` [Compound 16, 3-(((R)-2-acetamido-3-(((S)-3-hydroxy-1-methoxy-1-oxopropan-2-yl)amino)-3-oxopropyl)thio)propyl palmitate], the “hTLR2-agonistic activity in words” value on human TLR2 (hTLR2 reporter gene assay) is “active, albeit much weaker in potency than 11d”. At human TLR2 (setting [4]), the EC50 was 5.52 nM.
As for `CCCCCCCCCCCCCCCC(=O)OCCSC[C@H](NC(C)=O)C(=O)N[C@@H](CCCCN)C(=O)OC` [Compound 23, 2-(((R)-2-Acetamido-3-(((S)-6-amino-1-methoxy-1-oxohexan-2-yl)amino)-3-oxopropyl)thio)ethyl palmitate], the water solubility result in the data set “Aqueous solubility” is “highly water soluble”. The “stability of aqueous stocks” value in data set [1] is on record as “significant loss of activity of aqueous stocks within about a week”. At human TLR2 (setting [4]), the EC50 is 0.225 nM.
Take `CCCCCCCCCCCCCCCC(=O)OCCSC[C@H](NC(C)=O)C(=O)N[C@@H](COS(=O)(=O)O)C(=O)OC` [Compound 26, 2-(((R)-2-Acetamido-3-(((S)-1-methoxy-1-oxo-3-(sulfooxy)propan-2-yl)amino)-3-oxopropyl)thio)ethyl palmitate]: the water solubility entry in “Aqueous solubility” is on record as “exceptionally water soluble”. In addition, the EC50 at human TLR2 (setting [4]) turned out to be 7.1 nM.
On to `CCCCCCCCCCCCCCCC(=O)OCCSC[C@H](NC(C)=O)C(=O)N[C@@H](COC(=O)CCC(=O)O)C(=O)OC` [Compound 27, (7S,10R)-10-Acetamido-7-(methoxycarbonyl)-4,9,16-trioxo-5,15-dioxa-12-thia-8-azahentriacontan-1-oic acid], for which, in “Aqueous solubility”, the water solubility result is “exceptionally water soluble”. For the same compound, at human TLR2 (setting [4]), the EC50 worked out at 0.518 nM.
For `CCCCCCCCCCCCCCCC(=O)OCCSC[C@H](NC(C)=O)C(=O)N[C@@H](COC(=O)c1cccnc1)C(=O)OC` [Compound 28, (S)-2-((R)-2-Acetamido-3-((2-(palmitoyloxy)ethyl)thio)propanamido)-3-methoxy-3-oxopropyl nicotinate], the EC50 on human TLR2 (setting [4]) came to 1.27 nM.
On to `CCCCCCCCCCCCCCCC(=O)NCCSC[C@H](NC(C)=O)C(=O)N[C@@H](CO)C(=O)OC` [Compound 34, (S)-Methyl 2-((R)-2-acetamido-3-((2-palmitamidoethyl)thio)propanamido)-3-hydroxypropanoate], for which the EC50 at human TLR2 (setting [4]) stood at 11.8 nM.
As for `CCCCCCCCCCCCCCCCn1cc(CCSC[C@H](NC(C)=O)C(=O)N[C@@H](CO)C(=O)OC)nn1` [Compound 38, (S)-Methyl 2-((R)-2-acetamido-3-((2-(1-hexadecyl-1H-1,2,3-triazol-4-yl)ethyl)thio)propanamido)-3-hydroxypropanoate], on human TLR2 (setting [4]), the half-maximal effective concentration (EC50) was determined as 641 nM.
On the same count and under the same terms, for `CCCCCCCCCCCCCc1cn(CCSC[C@H](NC(C)=O)C(=O)N[C@@H](CO)C(=O)OC)nn1` [Compound 41, (S)-Methyl 2-((R)-2-acetamido-3-((2-(4-tridecyl-1H-1,2,3-triazol-1-yl)ethyl)thio)propanamido)-3-hydroxypropanoate] the value was 260 nM.
Take `CCCCCCCCCCCCCCCCNC(=O)OCCSC[C@H](NC(C)=O)C(=O)N[C@@H](CO)C(=O)OC` [Compound 45, (2S,5R)-Methyl 5-acetamido-2-(hydroxymethyl)-4,11-dioxo-10-oxa-7-thia-3,12-diazaoctacosan-1-oate]: on human TLR2 (setting [4]), the EC50 was 0.323 nM.
On the same count and under the same terms, the same measure for `CCCCCCCCCCCCCCCCOC(=O)NCCSC[C@H](NC(C)=O)C(=O)N[C@@H](CO)C(=O)OC` [Compound 48, (2S,5R)-Methyl 5-acetamido-2-(hydroxymethyl)-4,11-dioxo-12-oxa-7-thia-3,10-diazaoctacosan-1-oate]: 0.0615 nM.
With `CCCCCCCCCCCCCCCCOC(=O)NCCSC[C@H](NC(C)=O)C(=O)N[C@@H](CO)C(=O)NCCCN(C)C` [Compound 52, Hexadecyl ((8S,11R)-11-acetamido-8-(hydroxymethyl)-2-methyl-7,10-dioxo-13-thia-2,6,9-triazapentadecan-15-yl)carbamate], the water solubility result in “Aqueous solubility” was “restored”. Besides, the EC50 on human TLR2 (setting [4]) worked out at 0.279 nM.
Take `CCCCCCCCCCC[C@@H](O)CC(=O)OCCSC[C@H](NC(C)=O)C(=O)N[C@@H](CO)C(=O)OC` [Compound 65]: the EC50 on human TLR2 (setting [4]) amounted to 1.13 nM.
Regarding `CCCCCCCCCCC[C@H](CC(=O)OCCSC[C@H](NC(C)=O)C(=O)N[C@@H](CO)C(=O)OC)OC=O` [Compound 66], the EC50 on human TLR2 (setting [4]) is 0.808 nM.
The same measure, in the same setting: for `CCCCCCCCCCC[C@H](CC(=O)OCCSC[C@H](NC(C)=O)C(=O)N[C@@H](CO)C(=O)OC)OC(C)=O` [Compound 82] the value was 0.182 nM; for `CCCCCCCCCCC[C@H](CC(=O)OCCSC[C@H](NC(C)=O)C(=O)N[C@@H](CO)C(=O)OC)OC(=O)CCC` [Compound 83], 0.345 nM; for `CCCCCCCCCCC[C@H](CC(=O)OCCSC[C@H](NC(C)=O)C(=O)N[C@@H](CO)C(=O)OC)OC(=O)CCCCC` [Compound 84], 1.5 nM.
On to `CCCCCCCCCCC[C@H](CC(=O)OCCSC[C@H](NC(C)=O)C(=O)N[C@@H](CO)C(=O)OC)OC(=O)CCCCCCC` [Compound 85], for which the EC50 on human TLR2 (setting [4]) amounted to 3.08 nM.
With `CCCCCCCCCCC[C@H](CC(=O)OCCSC[C@H](NC(C)=O)C(=O)N[C@@H](CO)C(=O)OC)OC(=O)CCCCCCCCC` [Compound 86], the EC50 on human TLR2 (setting [4]) worked out at 12.9 nM.
On the same count and under the same terms, for `CCCCCCCCCCCC(=O)O[C@H](CCCCCCCCCCC)CC(=O)OCCSC[C@H](NC(C)=O)C(=O)N[C@@H](CO)C(=O)OC` [Compound 87] the value was 20.7 nM.
Consider `CCCCCCCCCCCCCC(=O)O[C@H](CCCCCCCCCCC)CC(=O)OCCSC[C@H](NC(C)=O)C(=O)N[C@@H](CO)C(=O)OC` [Compound 88], for which, on human TLR2 (setting [4]), the EC50 was determined as 9.52 nM.
Regarding `CCCCCCCCCCCCCCCC(=O)O[C@H](CCCCCCCCCCC)CC(=O)OCCSC[C@H](NC(C)=O)C(=O)N[C@@H](CO)C(=O)OC` [Compound 89], the EC50 on human TLR2 (setting [4]) was 4.78 nM.
Regarding PAM2CSK4 [reference compound], the adjuvanticity result in data set [2] is recorded as “highly adjuvantic”.
